What follows are cell lines tested with O=C(O)C(Cc1ccccc1[N+](=O)[O-])=NNc1nc(-c2ccc(Cl)c(Cl)c2)cs1 (mixture of isomers) [4EGI-1] + COc1cccc2cc(-c3nc([C@H]4CC[C@H](C(=O)O)CC4)n4ncnc(N)c34)[nH]c12 [OSI-027] (partner 0.5 µM) (assay: relative viability (nuclei count vs DMSO), 5 days (fraction); higher = more cells survive). Details: first compound 0.5 µM.
Procedure, shortened: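 Nuclei were stained with Hoechst during a one-step fixation (final 0.05% Triton X-100, 1% formaldehyde, 1 ug/ml Hoechst) carried out 5 days after dosing, then counted on 4× images. The cells, lung cancer lines in 1536-well plates, had been dosed by pin tool the day after seeding with one drug alone or a fixed anchor-drug dose plus five library-drug doses (not always all listed) in √10 steps. Relative viability is the nuclei count in treated wells divided by that in vehicle wells, and each value is the median of duplicate plates.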

| Cell Line | relative viability |
| --- | --- |
| BEN | 0.328 |
| CAL-12T | 0.822 |
| COR-L23 | 0.899 |
| COR-L 105 | 0.937 |
| ChaGo-K-1 | 0.595 |
| EKVX | 0.736 |
| EMC-BAC-2 | 0.39 |
| EPLC-272H | 0.317 |
| H3255 | 0.655 |
| HARA | 0.651 |
| HCC-15 | 0.692 |
| HCC-44 | 0.483 |
| HCC-78 | 0.356 |
| HCC-366 | 0.922 |
| HCC-827 | 0.888 |
| HOP-62 | 0.878 |

| Cell Line | relative viability |
| --- | --- |
| LC-2-ad | 0.873 |
| LCLC-97TM1 | 0.464 |
| LCLC-103H | 0.479 |
| LK-2 | 0.196 |
| LOU-NH91 | 0.737 |
| NCI-H441 | 0.812 |
| NCI-H522 | 0.69 |
| NCI-H1395 | 0.647 |
| NCI-H1623 | 0.457 |
| NCI-H1648 | 0.254 |
| NCI-H1650 | 0.705 |
| NCI-H1793 | 0.331 |
| NCI-H2170 | 0.785 |
| NCI-H2342 | 0.596 |
| SW 900 | 0.72 |

Same assay, conditions: first compound 1.581 µM

| Cell Line | relative viability |
| --- | --- |
| 201T | 0.622 |
| A-427 | 0.386 |
| ABC-1 | 0.357 |
| BEN | 0.281 |
| CAL-12T | 0.413 |
| COR-L23 | 0.459 |
| COR-L 105 | 0.572 |
| ChaGo-K-1 | 0.526 |
| EKVX | 0.594 |
| EMC-BAC-2 | 0.342 |
| H3255 | 0.564 |
| HARA | 0.517 |
| HCC-366 | 0.742 |
| HCC-827 | 0.629 |
| HOP-62 | 0.585 |
| LCLC-97TM1 | 0.258 |
| LCLC-103H | 0.469 |
| NCI-H441 | 0.488 |
| NCI-H522 | 0.645 |
| NCI-H1395 | 0.43 |
| NCI-H1623 | 0.418 |
| NCI-H1648 | 0.26 |
| NCI-H1793 | 0.287 |
| NCI-H2170 | 0.63 |
| NCI-H2342 | 0.644 |

Same assay, conditions: first compound 5 µM

| Cell Line | relative viability |
| --- | --- |
| 201T | 0.824 |
| A-427 | 0.534 |
| ABC-1 | 0.455 |
| BEN | 0.324 |
| CAL-12T | 0.755 |
| COR-L23 | 0.848 |
| COR-L 105 | 0.718 |
| ChaGo-K-1 | 0.558 |
| EKVX | 0.738 |
| EMC-BAC-2 | 0.4 |
| EPLC-272H | 0.285 |
| H3255 | 0.611 |
| HARA | 0.648 |
| HCC-15 | 0.734 |
| HCC-44 | 0.41 |
| HCC-78 | 0.38 |
| HCC-366 | 1.13 |

| Cell Line | relative viability |
| --- | --- |
| HCC-827 | 0.796 |
| HOP-62 | 0.839 |
| LC-2-ad | 0.894 |
| LCLC-97TM1 | 0.527 |
| LCLC-103H | 0.482 |
| LK-2 | 0.201 |
| LOU-NH91 | 0.752 |
| NCI-H441 | 0.653 |
| NCI-H522 | 0.693 |
| NCI-H1395 | 0.686 |
| NCI-H1623 | 0.475 |
| NCI-H1648 | 0.252 |
| NCI-H1650 | 0.681 |
| NCI-H1793 | 0.355 |
| NCI-H2170 | 0.713 |
| NCI-H2342 | 0.62 |
| SW 900 | 0.586 |

Same assay, conditions: first compound 15.81 µM

| Cell Line | relative viability |
| --- | --- |
| 201T | 0.704 |
| A-427 | 0.44 |
| ABC-1 | 0.313 |
| BEN | 0.317 |
| CAL-12T | 0.522 |
| COR-L23 | 0.542 |
| COR-L 105 | 0.434 |
| ChaGo-K-1 | 0.483 |
| EKVX | 0.567 |
| EMC-BAC-2 | 0.374 |
| EPLC-272H | 0.274 |
| H3255 | 0.448 |
| HARA | 0.453 |
| HCC-15 | 0.557 |
| HCC-44 | 0.404 |
| HCC-78 | 0.34 |
| HCC-366 | 0.669 |

| Cell Line | relative viability |
| --- | --- |
| HOP-62 | 0.746 |
| LC-2-ad | 0.386 |
| LCLC-97TM1 | 0.482 |
| LCLC-103H | 0.471 |
| LK-2 | 0.182 |
| LOU-NH91 | 0.432 |
| NCI-H441 | 0.478 |
| NCI-H522 | 0.689 |
| NCI-H1395 | 0.567 |
| NCI-H1623 | 0.324 |
| NCI-H1648 | 0.302 |
| NCI-H1650 | 0.263 |
| NCI-H1793 | 0.247 |
| NCI-H2170 | 0.558 |
| NCI-H2342 | 0.625 |
| SW 900 | 0.46 |

Same assay, conditions: first compound 50 µM

| Cell Line | relative viability |
| --- | --- |
| 201T | 0.656 |
| A-427 | 0.152 |
| ABC-1 | 0.218 |
| BEN | 0.26 |
| CAL-12T | 0.21 |
| COR-L23 | 0.138 |
| COR-L 105 | 0.535 |
| ChaGo-K-1 | 0.381 |
| EKVX | 0.696 |
| EMC-BAC-2 | 0.327 |
| EPLC-272H | 0.172 |
| H3255 | 0.578 |
| HARA | 0.154 |
| HCC-15 | 0.19 |
| HCC-44 | 0.175 |
| HCC-78 | 0.362 |
| HCC-366 | 0.277 |

| Cell Line | relative viability |
| --- | --- |
| HCC-827 | 0.719 |
| HOP-62 | 0.483 |
| LC-2-ad | 0.234 |
| LCLC-97TM1 | 0.478 |
| LCLC-103H | 0.333 |
| LK-2 | 0.178 |
| LOU-NH91 | 0.675 |
| NCI-H441 | 0.333 |
| NCI-H522 | 0.63 |
| NCI-H1395 | 0.355 |
| NCI-H1623 | 0.382 |
| NCI-H1648 | 0.213 |
| NCI-H1650 | 0.173 |
| NCI-H1793 | 0.134 |
| NCI-H2170 | 0.391 |
| NCI-H2342 | 0.517 |

From the supplement of paper PMC10307832
